The text below walks through data of patent US8017594B2, “Agent against psychosocial stresses” (Yamasa Corporation, priority 2006, dated 2011).

The subject of the experiment is isolation-reared male ddy mice. As to the kind of experiment: Aggressive behavior of isolation-reared (sociopsychological stress) mice. The class given is in vivo. The settings on record: six weeks after initiation of isolation-rearing, two mice in same cage for 20 minutes, vs solvent. Here is the method:
Conceivably, this phenomenon is attributed to the fact that rearing of experimental animals under conditions where social environmental change or social stimuli are absent imposes a kind of sociopsychological stress on the animals (“Mechanism of Sleep,” pp. 52-73 “Stress and Sleep,” Asakura Publishing Co., Ltd. (1997)). In Example 1, anti-stress effects of uridine and GABA (i.e., control) were evaluated through use of this phenomenon. Specifically, isolation-rearing of male ddy mice was initiated at four weeks old, to thereby impose sociopsychological stress (stress caused by isolation-rearing) on the mice. Thus, animal models for evaluation were prepared.
On the basis of this report, the following evaluation was carried out. Specifically, six weeks after initiation of isolation-rearing, two mice were placed in the same cage for 20 minutes, and the time during which aggressive behavior was observed was measured. The effect of uridine or GABA on prolongation of aggressive behavior was evaluated.
A test compound was suspended or dissolved in 0.5% aqueous carboxymethylcellulose solution, and the resultant suspension or solution was orally administered once a day, six days a week, until the end of the experiment.
Mice were divided into four groups. Mice of one group were group-reared and received a solvent. Mice of the other three groups were isolation-reared and received a solvent (100 mg/kg/day), uridine (100 mg/kg/day), and GABA (100 mg/kg/day), respectively. Observation of aggressive behavior was carried out in […] of mice in each group (n=9).
The experiment of Example 1 was repeated, except that the dose of uridine was changed to 10 mg/kg/day, and uridylic acid was administered in place of GABA at a dose of 1 g/kg/day.

Setting [1] is: 100 mg/kg/day oral, once a day six days a week.

With `NCCCC(=O)O` [GABA, γ-aminobutyric acid, reference compound], the “time during which aggressive behavior was observed” value under setting [1] is listed as “significantly reduced”.

Regarding `O=c1ccn([C@@H]2O[C@H](CO)[C@@H](O)[C@H]2O)c(=O)[nH]1` [uridine], the “time during which aggressive behavior was observed” value is, setting by setting: (10 mg/kg/day oral (low-dose)) “significantly reduced”; under setting [1], “significantly reduced”.

As to `O=c1ccn([C@@H]2O[C@H](COP(=O)(O)O)[C@@H](O)[C@H]2O)c(=O)[nH]1` [uridylic acid], the “time during which aggressive behavior was observed” value (1 g/kg/day oral) was “significantly reduced”.
